Measured values published in patent publication US12077503B2, “Substituted cyclic amides and their use as herbicides” (FMC CORPORATION, priority 2015, dated 2024).

How the values were obtained:
Assay type in all cases: in vivo
[1] = tested on: ducksalad (Heteranthera limosa); experiment: Test B flooded paddy test; conditions: Flood, 500 g ai/ha; 0 to 100 scale where 0 is no effect and 100 is complete control; 13 to 15 d
How it was run: (§1)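 Visual ratings (0 none to 100 complete control) are relative to untreated plants, taken 13–15 d after treatment in a greenhouse. Test material went straight into floodwater standing 3 cm above the soil, kept constant, on plants at the 2-leaf stage.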

[2] = tested on: sedge, umbrella (small-flower umbrella sedge, Cyperus difformis); experiment: Test B flooded paddy test; conditions: Flood, 500 g ai/ha; 0 to 100 scale where 0 is no effect and 100 is complete control; 13 to 15 d
How it was run: as §1

rice (Oryra sativa) = experiment: Test B flooded paddy test; conditions: Flood, 500 g ai/ha; 0 to 100 scale where 0 is no effect and 100 is complete control; 13 to 15 d
How it was run: as §1

[3] = tested on: barnyardgrass (Echinochloa crus-galli); experiment: Test B flooded paddy test; conditions: Flood, 500 g ai/ha; 0 to 100 scale where 0 is no effect and 100 is complete control; 13 to 15 d
How it was run: as §1

Kochia (Kochia scoparia) [4] = experiment: Test A preemergence
How it was run: (§2)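 Treatment is preemergence as a directed soil spray after planting, or postemergence at the one- to two-leaf stage, with test chemical in a non-phytotoxic solvent mixture plus surfactant. Plants stay in the greenhouse about 10 d before visual injury scoring on a 0 to 100 scale versus untreated controls.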

[5] = tested on: ragweed (common ragweed, Ambrosia elatior); experiment: Test A preemergence
How it was run: as §2

[6] = tested on: pigweed (Amaranthus retroflexus); experiment: Test A preemergence
[7] = tested on: giant foxtail (Setaria faberii); experiment: Test A preemergence
How it was run: as §2

[8] = tested on: ryegrass, Italian (Italian ryegrass, Lolium multiflorum); experiment: Test A preemergence
How it was run: as §2

[9] = tested on: barnyardgrass (Echinochloa crus-galli); experiment: Test A preemergence
How it was run: as §2

[10] = tested on: lambsquarters (Chenopodium album); experiment: Test C preemergence; conditions: for Plant response rating (scale of 0 to 100), Lambsquarters: 31 g ai/ha, 0 is no effect, 100 is complete control; for Plant response rating, Lambsquarters: scale 0 to 100, 0 no effect, 100 complete control
Description: Seeds of plant species selected from blackgrass (Alopecurus myosuroides), ryegrass, Italian (Italian ryegrass, Lolium multiflorum), wheat (winter wheat, Triticum aestivum), Galium (catchweed bedstraw, Galium aparine), corn (Zea mays), crabgrass, large (large crabgrass, Digitaria sanguinalis), foxtail, giant (giant foxtail, Setaria faberii), johnsongrass (Sorghum halepense), lambsquarters (Chenopodium album), morningglory (Ipomoea coccinea), nutsedge, yellow (yellow nutsedge, Cyperus esculentus), pigweed (Amaranthus retroflexus), ragweed (common ragweed, Ambrosia elatior), soybean (Glycine max), barnyardgrass (Echinochloa crus-galli), oilseed rape (Brassica napus), waterhemp (common waterhemp, Amaranthus rudis) and velvetleaf (Abutilon theophrasti) were planted into a blend of loam soil and sand and treated preemergence with test chemicals formulated in a non-phytotoxic solvent mixture which included a surfactant.
At the same time, plants selected from these crop and weed species and also Kochia (Kochia scoparia), oat, wild (wild oat, Avena fatua), and chickweed (common chickweed, Stellaria media) were planted in pots containing Sunshine Redi-Earth® planting medium comprising spaghnum peat moss, vermiculite, starter nutrients and dolomitic limestone and treated with postemergence applications of test chemicals formulated in the same manner. Plants ranged in height from 2 to 18 cm (1- to 4-leaf stage) for postemergence treatments. Treated plants and controls were maintained in a greenhouse for 13 to 15 d, after which time all species were compared to controls and visually evaluated. Plant response ratings, summarized in Table C, are based on a scale of 0 to 100 where 0 is no effect and 100 is complete control. A dash (-) response means no test result.

[11] = tested on: Galium (catchweed bedstraw, Galium aparine); experiment: Test A postemergence; conditions: postemergence, 0 to 100 scale (0 no effect, 100 complete control)
How it was run: as §2

Kochia (Kochia scoparia) [12] = experiment: Test A postemergence; conditions: postemergence, 0 to 100 scale (0 no effect, 100 complete control)
How it was run: as §2

[13] = tested on: wheat (Triticum aestivum); experiment: Test A postemergence; conditions: postemergence, 0 to 100 scale (0 no effect, 100 complete control)
How it was run: as §2

[14] = tested on: ragweed (common ragweed, Ambrosia elatior); experiment: Test A postemergence; conditions: postemergence, 0 to 100 scale (0 no effect, 100 complete control)
How it was run: as §2

[15] = tested on: pigweed (Amaranthus retroflexus); experiment: Test A postemergence; conditions: postemergence, 0 to 100 scale (0 no effect, 100 complete control)
How it was run: as §2

[16] = tested on: giant foxtail (Setaria faberii); experiment: Test A postemergence; conditions: postemergence, 0 to 100 scale (0 no effect, 100 complete control)
How it was run: as §2

corn (Zea mays) = experiment: Test A postemergence
How it was run: as §2

[17] = tested on: blackgrass (Alopecurus myosuroides); experiment: Test A postemergence
How it was run: as §2

[18] = tested on: ryegrass, Italian (Italian ryegrass, Lolium multiflorum); experiment: Test A postemergence; conditions: postemergence, 0 to 100 scale (0 no effect, 100 complete control)
How it was run: as §2

[19] = tested on: barnyardgrass (Echinochloa crus-galli); experiment: Test A postemergence
How it was run: as §2

[20] = 125 g ai/ha, preemergence, visual rating after approx. 10 d, 0 to 100 scale where 0 is no effect and 100 is complete control
[21] = 500 g ai/ha, preemergence, 0 to 100 scale, 0 = no effect, 100 = complete control
[22] = 125 g ai/ha, visual injury after approximately 10 d
[23] = 500 g ai/ha, visual injury, approx. 10 d
[24] = 125 g ai/ha, postemergence, visual injury after approximately 10 d, 0 to 100 scale (0 no effect, 100 complete control)
[25] = 500 g ai/ha, postemergence, visual injury, 0 to 100 scale (0 no effect, 100 complete control), approx. 10 d
[26] = 125 g ai/ha, Preemergence, visual injury after approximately 10 d, 0 to 100 scale where 0 is no effect and 100 is complete control
[27] = 125 g ai/ha, visual rating after approx. 10 d
[28] = 125 g ai/ha, postemergence, visual rating after approx. 10 d, 0 to 100 scale (0 no effect, 100 complete control)
[29] = Postemergence, 500 g ai/ha, 0 to 100 scale where 0 is no effect and 100 is complete control

Row | SMILES | Plant response rating, Ducksalad [1] | Plant response rating, Sedge, Umbrella [2] | Plant response rating, Rice (rice (Oryra sativa)) | Plant response rating, Barnyardgrass [3] | Plant response rating, Kochia (Kochia (Kochia scoparia) [4]; [21]) | Plant response rating, Ragweed [5, 21] | Plant response rating, Pigweed [6, 21] | Plant response rating, Foxtail, Giant [7, 21] | Plant response rating, Ryegrass, Italian [8, 21] | Plant response rating, Barnyardgrass [9, 21] | Plant response rating (scale of 0 to 100), Lambsquarters [10] | Plant response rating, Lambsquarters ([10]; 62 g ai/ha) | Plant response rating, Lambsquarters ([10]; 125 g ai/ha) | Plant response rating, Lambsquarters ([10]; 250 g ai/ha) | Plant response rating, Galium [11, 23] | Plant response rating, Kochia (Kochia (Kochia scoparia) [12]; [23]) | Plant response rating, Wheat [13, 23] | Plant response rating, Ragweed [14, 23] | Plant response rating, Pigweed [15, 23] | Plant response rating, Foxtail, Giant [16, 23] | other results
1 | O=C1NCC(c2cccc(OC(F)(F)C(F)F)c2)C1C(=O)Nc1ccc(F)c(F)c1F (racemic) [Compound 698] | 90 | 0 | 0 | 50 | 40 | 50 | 50 | 90 | 60 | 90 | 10 | 35 | 70 | 80 | 50 | 60 | 40 | 40 | 60 | 80 | Plant response rating, Kochia (Kochia (Kochia scoparia) [4]; [20]): 50; Plant response rating, Ragweed [5, 20]: 0; Plant response rating, Pigweed [6, 20]: 50; Plant response rating, Foxtail, Giant [7, 20]: 90; Plant response rating, Ryegrass, Italian [8, 20]: 30; Plant response rating, Barnyardgrass [9, 20]: 80; Plant response rating, Galium [11, 22]: 50; Plant response rating, Kochia (Kochia (Kochia scoparia) [12]; [22]): 50; Plant response rating, Wheat [13, 22]: 30; Plant response rating, Ragweed [14, 22]: 20; Plant response rating, Pigweed [15, 22]: 40; Plant response rating, Foxtail, Giant [16, 22]: 80; Plant response rating, Corn (corn (Zea mays); [24]): 80; Plant response rating, Corn (corn (Zea mays); [25]): 80; Plant response rating, Blackgrass [17, 24]: 30; Plant response rating, Blackgrass [17, 25]: 40; Plant response rating, Ryegrass, Italian [18, 22]: 30; Plant response rating, Ryegrass, Italian [18, 23]: 30; Plant response rating, Barnyardgrass [19, 24]: 70; Plant response rating, Barnyardgrass [19, 25]: 80
2 | O=C1NCC(c2ccc3c(c2)OC(F)(F)O3)C1C(=O)Nc1cccc(F)c1F (stereo not drawn) [Compound 635] | 100 | 0 | 10 | 60 | 60 | 50 | 70 | 90 | 30 | 90 | 40 | 40 | 80 | 85 | 60 | 80 | 40 | 40 | 80 | 90 | Plant response rating, Kochia (Kochia (Kochia scoparia) [4]; [26]): 60; Plant response rating, Ragweed [5, 26]: 40; Plant response rating, Pigweed [6, 26]: 60; Plant response rating, Foxtail, Giant [7, 26]: 90; Plant response rating, Ryegrass, Italian [8, 26]: 20; Plant response rating, Barnyardgrass [9, 26]: 90; Plant response rating, Galium [11, 27]: 40; Plant response rating, Kochia (Kochia (Kochia scoparia) [12]; [27]): 60; Plant response rating, Wheat [13, 27]: 20; Plant response rating, Ragweed [14, 27]: 0; Plant response rating, Pigweed [15, 27]: 60; Plant response rating, Foxtail, Giant [16, 27]: 90; Plant response rating, Corn (corn (Zea mays); [28]): 40; Plant response rating, Corn (corn (Zea mays); [29]): 70; Plant response rating, Blackgrass [17, 28]: 40; Plant response rating, Blackgrass [17, 29]: 70; Plant response rating, Ryegrass, Italian [18, 27]: 0; Plant response rating, Ryegrass, Italian [18, 23]: 30; Plant response rating, Barnyardgrass [19, 28]: 80; Plant response rating, Barnyardgrass [19, 29]: 90
3 | O=C1NCC(c2ccc(I)cc2)C1C(=O)Nc1cccc(F)c1F (racemic) [Compound 700] | 100 | 0 | 0 | 85 | 70 | 60 | 60 | 90 | 30 | 90 | 0 | 25 | 80 | 85 | 60 | 60 | 60 | 30 | 30 | 90 | Plant response rating, Kochia (Kochia (Kochia scoparia) [4]; [20]): 30; Plant response rating, Ragweed [5, 20]: 0; Plant response rating, Pigweed [6, 20]: 40; Plant response rating, Foxtail, Giant [7, 20]: 90; Plant response rating, Ryegrass, Italian [8, 20]: 0; Plant response rating, Barnyardgrass [9, 20]: 90; Plant response rating, Galium [11, 22]: 40; Plant response rating, Kochia (Kochia (Kochia scoparia) [12]; [22]): 30; Plant response rating, Wheat [13, 22]: 0; Plant response rating, Ragweed [14, 22]: 20; Plant response rating, Pigweed [15, 22]: 0; Plant response rating, Foxtail, Giant [16, 22]: 70; Plant response rating, Corn (corn (Zea mays); [24]): 0; Plant response rating, Corn (corn (Zea mays); [25]): 70; Plant response rating, Blackgrass [17, 24]: 0; Plant response rating, Blackgrass [17, 25]: 50; Plant response rating, Ryegrass, Italian [18, 22]: 30; Plant response rating, Ryegrass, Italian [18, 23]: 40; Plant response rating, Barnyardgrass [19, 24]: 70; Plant response rating, Barnyardgrass [19, 25]: 70
